Assay results as given in ChEMBL document CHEMBL1148482, “Novel benzophenones as non-nucleoside reverse transcriptase inhibitors of HIV-1” (J Med Chem, 2004).
pIC50: −log10 of the molar value.

Experiments:
MT4 [1] = assay: Antiviral activity against MT-4 cells infected with Nev-R strain of HIV-1; conditions: Homo sapiens
MT4 [2] = assay: Antiviral activity against MT-4 cells infected with wild-type HIV-1; conditions: Homo sapiens
[3] = system: Human immunodeficiency virus 1; assay: Antiviral activity against Y188C strain of HIV-1; type: functional, organism-based
[4] = system: Human immunodeficiency virus 1; assay: Antiviral activity against wild-type HIV-1; type: functional, organism-based
[5] = system: Human immunodeficiency virus 1; assay: Antiviral activity against E138K strain of HIV-1; type: functional, organism-based
[6] = system: Human immunodeficiency virus 1; assay: Antiviral activity against G190A strain of HIV-1; type: functional, organism-based
[7] = system: Human immunodeficiency virus 1; assay: Antiviral activity against K101E strain of HIV-1; type: functional, organism-based
[8] = system: Human immunodeficiency virus 1; assay: Antiviral activity against K103N strain of HIV-1; type: functional, organism-based
[9] = system: Human immunodeficiency virus 1; assay: Antiviral activity against K103N/G190A strain of HIV-1; type: functional, organism-based
[10] = system: Human immunodeficiency virus 1; assay: Antiviral activity against K103N/L100I strain of HIV-1; type: functional, organism-based
[11] = system: Human immunodeficiency virus 1; assay: Antiviral activity against K103N/P225H strain of HIV-1; type: functional, organism-based
[12] = system: Human immunodeficiency virus 1; assay: Antiviral activity against K103N/V108I strain of HIV-1; type: functional, organism-based
[13] = system: Human immunodeficiency virus 1; assay: Antiviral activity against K103N/Y181C strain of HIV-1; type: functional, organism-based
[14] = system: Human immunodeficiency virus 1; assay: Antiviral activity against P225H strain of HIV-1; type: functional, organism-based
[15] = system: Human immunodeficiency virus 1; assay: Antiviral activity against P236L strain of HIV-1; type: functional, organism-based
[16] = system: Human immunodeficiency virus 1; assay: Antiviral activity against V106A strain of HIV-1; type: functional, organism-based
[17] = system: Human immunodeficiency virus 1; assay: Antiviral activity against V106A/Y181C strain of HIV-1; type: functional, organism-based
[18] = system: Human immunodeficiency virus 1; assay: Antiviral activity against V106I strain of HIV-1; type: functional, organism-based
[19] = system: Human immunodeficiency virus 1; assay: Antiviral activity against V106I/Y181C strain of HIV-1; type: functional, organism-based
[20] = system: Human immunodeficiency virus 1; assay: Antiviral activity against V108I strain of HIV-1; type: functional, organism-based
[21] = system: Human immunodeficiency virus 1; assay: Antiviral activity against V108I/Y181C strain of HIV-1; type: functional, organism-based
[22] = system: Human immunodeficiency virus 1; assay: Antiviral activity against Y181C strain of HIV-1; type: functional, organism-based
[23] = system: Human immunodeficiency virus 1; assay: Antiviral activity against L100I strain of HIV-1; type: functional, organism-based

O=C1Nc2ccc(Cl)cc2[C@@](C#CC2CC2)(C(F)(F)F)O1 [EFAVIRENZ]
pIC50 (MT4 [1]): 8.57 | pIC50 (MT4 [2]): 8.46

Cc1ccnc2c1NC(=O)c1cccnc1N2C1CC1 [NEVIRAPINE]
pIC50 [3]: 5.64 | pIC50 [4]: 7.00 | pIC50 [5]: 7.19 | pIC50 [6]: < 5.00 | pIC50 [7]: 6.28 | pIC50 [8]: 5.18 | pIC50 [9]: < 5.00 | pIC50 [10]: 5.10 | pIC50 [11]: 5.01 | pIC50 [12]: 4.82 | pIC50 [13]: < 5.00 | pIC50 [14]: 5.92 | pIC50 [15]: 7.25 | pIC50 [16]: 5.05 | pIC50 [17]: < 5.00 | pIC50 [18]: 6.82 | pIC50 [19]: < 5.00 | pIC50 [20]: 6.54 | pIC50 [21]: < 5.00 | pIC50 [22]: 5.03 | pIC50 (MT4 [1]): 4.76 | pIC50 (MT4 [2]): 7.02 | pIC50 [23]: 6.30

CC(C)Nc1cccnc1N1CCN(C(=O)c2cc3cc(NS(C)(=O)=O)ccc3[nH]2)CC1 [DELAVIRDINE]
pIC50 [3]: 6.77 | pIC50 [4]: 6.70 | pIC50 [5]: 8.00 | pIC50 [6]: 7.46 | pIC50 [7]: 7.54 | pIC50 [8]: 5.57 | pIC50 [9]: 5.57 | pIC50 [10]: < 5.08 | pIC50 [11]: 5.64 | pIC50 [12]: 5.46 | pIC50 [13]: < 5.08 | pIC50 [14]: 7.96 | pIC50 [15]: 5.80 | pIC50 [16]: 6.05 | pIC50 [17]: < 5.00 | pIC50 ([18]; read-out: IC50): 7.26 | pIC50 [19]: 5.35 | pIC50 [20]: 7.11 | pIC50 [21]: < 5.00 | pIC50 [22]: 5.64 | pIC50 (MT4 [1]): 5.62 | pIC50 (MT4 [2]): 6.80 | pIC50 [23]: 6.04
